Laboratory results reported in PMC8513058, “Synthesis and Evaluation of Novel 1,2,6-Thiadiazinone Kinase Inhibitors as Potent Inhibitors of Solid Tumors” (Molecules, 2021).
Like-named read-outs stand apart in the source and are kept apart here.

Tests used:
[1] = system: 5637 cells; set-up: method as in PMID 23887605; settings: positive control; cited from earlier work
[2] = system: A-431 cells; settings: read-out: IC50 A431, positive control; cited from earlier work
[3] = system: MCF-7 cells; settings: read-out: IC50 MCF7, positive control; cited from earlier work
[4] = system: WS-1 cell line; settings: read-out: IC50 WS-1, positive control; cited from earlier work
[5] = system: A-431 cells; assay: Cancer cell line viability screen (alamarBlue), A431; settings: Homo sapiens, A-431, 72 h, read-out: IC50 A431
Method: (§1) This included pancreatic, bladder, prostate, breast, chordoma, and lung cancer cell lines while a skin fibroblast cell line was used as a toxicity control [33, 34, 35, 36].
(§2) Cells were seeded in 384-well plates and were treated with test compound in quadruplicate 24 h after plating. Cell viability was assessed at 72 h using alamarBlue (ThermoFisher, Waltham, MA, USA). […] IC50 values were determined by nonlinear regression using GraphPad PrismTM software (GraphPad Software Inc., San Diego, CA, US).

[6] = system: kinases in SUM159 cell lysates; assay: MIBS kinome profiling (MIB-MS competitive displacement); assay type: binding; settings: 1 μM compound vs DMSO, SUM159 lysate
Method: We then assessed the kinome profile of thiadiazinones 16, 17, and 26 all at 1 μM using a multiplexed kinase inhibitor bead set and quantitative mass spectrometry for detection of kinase peptides (MIB-MS). The MIB-MS proteomics was able to detect between 350 and 400 kinases in the cell lysates and competitive displacement of specific kinases from the beads was used to determine the kinome profile of the thiadiazinone kinase inhibitors.
Previously described. Briefly, multiplexed inhibitor beads (MIBS) affinity chromatography/MS analysis: SUM159 cells were cultured in a 50:50 mixture of DMEM and Nutrient Mixture F-12 medium (Gibco) supplemented with 5% fetal bovine serum, 1% anti/anti, […] insulin, and […] hydrocortisone. Cells were maintained at 37 °C in a humidified 5% CO2 atmosphere. SUM159 cells were grown to 80% confluency, washed twice with PBS, and harvested by scraping cells in lysis buffer [50 mM HEPES, pH 7.5, 150 mM NaCl, 0.5% Triton X-100, 1 mM EDTA, 1 mM EGTA, 10 mM NaF, 2.5 mM Na3VO4, complete protease inhibitor cocktail (Roche, Basel, Switzerland), phosphatase inhibitor cocktail 2, and 3 (Sigma, St. Louis, MO, USA)]. Lysates were sonicated then clarified by centrifugation at 14000 V g for 15 min at 4 °C. Lysate was then filtered through a […] syringe filter and frozen at −80 °C until use. Protein concentration was quantified using a Bradford assay the day of the experiment. DMSO or the indicated concentration of 16, 17, and 26 were added to lysate containing 4 mg of total protein. Lysates were vortexed briefly then incubated for 30 min on ice. Kinases were affinity purified as previously described. Briefly, lysates were diluted to 1.33 mg mL^−1 with lysis buffer then NaCl concentration brought to 1 M.
Diluted lysates were passed over a mixture of […] of settled beads of each of the following inhibitors conjugated to ECH Sepharose beads: Purvalanol B, PP58, VI-16832, UNC21474A, UNC8088A, and […] of settled beads conjugated to CTx-0294885 and VI-16832 [69]. The kinase inhibitor–bead conjugates were previously equilibrated in high-salt buffer (50 mM HEPES pH 7.5, 1M NaCl, 0.5% Triton X-100, 1 mM EDTA, and 1 mM EGTA). MIBs columns were sequentially washed with high-salt buffer, low-salt buffer (50 mm HEPES pH 7.5, 150 mM NaCl, 0.5% Triton X-100, 1 mM EDTA, and 1 mM EGTA), and SDS buffer (50 mm HEPES pH 7.5, 150 mm NaCl, 0.5% Triton X-100, 1 mm EDTA, 1 mm EGTA, and 0.1% SDS). Proteins were eluted by boiling samples in elution buffer (100 mM Tris·HCl pH 6.8, 0.5% SDS, and 1% β-mercaptoethanol) for 15 min twice. Dithiothreitol (DTT) was added to a final concentration of 5 mm and samples were incubated at 60 °C for 25 min. Samples were then cooled to room temperature on ice and alkylated by adding iodoacetamide to a final concentration of 20 mm for 30 min in the dark at room temperature. Samples were then concentrated in 10K Amicon Ultra centrifugal concentrators (Millipore, Burlington, MA, USA) followed by methanol and chloroform precipitation of proteins. The final protein pellets were re-suspended in 50 mM HEPES pH 8.0 and incubated with trypsin at 37 °C overnight. Residual detergent was removed by three sequential ethyl acetate extractions then desalted using Pierce C18 spin columns (Thermo Scientific, Waltham, MA, USA) according to the manufacturer’s protocol.

[7] = system: DU145 cells; assay: Cancer cell line viability screen (alamarBlue), DU145; settings: Homo sapiens, DU-145, 72 h, read-out: IC50 DU145
Method: as §1
(§3) DU145 and MCF-7 cells were cultured in MEM medium supplemented with 10% FBS and 1% penicillin/streptomycin. […] Cells were seeded in 384-well plates and were treated with test compound in quadruplicate 24 h after plating. Cell viability was assessed at 72 h using alamarBlue (ThermoFisher, Waltham, MA, USA). […] IC50 values were determined by nonlinear regression using GraphPad PrismTM software (GraphPad Software Inc., San Diego, CA, US).

[8] = system: WS-1 cell line; assay: Toxicity control viability screen (alamarBlue), WS-1 skin fibroblasts; settings: WS1, 72 h, read-out: IC50 WS-1
Method: as §1, §3

[9] = Chemical stability of thiadiazinones under aqueous, nucleophile, oxidizing and reducing conditions; assay type: physicochemical; settings: tested similarly to 3,5-bis(phenylamino)-4H-1,2,6-thiadiazin-4-one: neutral, acidic, slightly basic aqueous, amine or thiol nucleophiles
Excerpt: It is important to note that the stability of dianilinothiadiazinones in biological systems has previously been assessed.

[10] = system: PANC-1 cells; assay: Cancer cell line viability screen (alamarBlue), PANC1; settings: Homo sapiens, PANC-1, 72 h, read-out: IC50 PANC1
Method: as §1, §3

[11] = system: MCF-7 cells; assay: Cancer cell line viability screen (alamarBlue), MCF7; settings: Homo sapiens, MCF7, 72 h, read-out: IC50 MCF7
Method: as §1, §3

[12] = system: U-CH2 cells; assay: Cancer cell line viability screen (alamarBlue), UCH2; settings: UCH2, 72 h, read-out: IC50 UCH2
Method: as §1, §2

[13] = system: U-CH1 cells; assay: Cancer cell line viability screen (alamarBlue), UCH1; settings: UCH1, 72 h, read-out: IC50 UCH1
Method: as §1, §2

[14] = system: 5637 cells; assay: Cancer cell line viability screen (alamarBlue), 5637
Method: as §1, §3

[15] = system: PANC-1 cells; set-up: method as in PMID 22487525; settings: positive control; read-out: IC50 PANC1, positive control; cited from earlier work
[16] = system: DU145 cells; set-up: method as in PMID 28373427; settings: positive control; cited from earlier work

SMILES: Cc1ccc(Nc2nccc(N(C)c3ccc4c(C)n(C)nc4c3)n2)cc1S(N)(=O)=O [pazopanib]
- IC50 [1]: 15 µM

SMILES: CS(=O)(=O)CCNCc1ccc(-c2ccc3ncnc(Nc4ccc(OCc5cccc(F)c5)c(Cl)c4)c3c2)o1 [lapatinib]
- IC50 [2]: 0.1 µM
- IC50 [3]: 6.3 µM
- IC50 [4]: 13 µM

SMILES: O=c1c(Nc2cccc(O)c2)nsnc1-c1ccnc2[nH]ccc12 [Compound 16, 3-[(3-Hydroxyphenyl)amino]-5-(1H-pyrrolo[2,3-b]pyridin-4-yl)-4H-1,2,6-thiadiazin-4-one]
- IC50 [5]: > 100 µM
- kinases competitively displaced from the beads (hits) [6]: weak interactions on MAP4K5, MAP4K3, PRKCD, and PKN1 just below the threshold
- kinome profile ([6]; 350-400 kinases detected): narrow spectrum kinome profile
- IC50 [7]: 41 µM
- IC50 [8]: > 100 µM
- stability [9]: the same results
- IC50 [10]: 33 µM
- melting point: 326 to 327 °C
- IC50 [11]: 18 µM
- IC50 [12]: > 100 µM
- IC50 [13]: 46 µM
- increase in potency on the bladder cancer cell line ([14]; 16 relative to methoxy analogue 15): 10 fold
- IC50 ([14]; 72 h, read-out: IC50 5637): 1.6 µM

SMILES: Cc1[nH]c2ccccc2c1CCNCc1ccc(/C=C/C(=O)NO)cc1 [panobinostat]
- IC50 [15]: 1 µM

SMILES: CC(=O)O[C@@]12CO[C@@H]1C[C@H](O)[C@@]1(C)C(=O)[C@H](O)C3=C(C)[C@@H](OC(=O)[C@H](O)[C@@H](NC(=O)OC(C)(C)C)c4ccccc4)C[C@@](O)([C@@H](OC(=O)c4ccccc4)[C@H]21)C3(C)C [docetaxel]
- IC50 [16]: 0.005 µM
